The test system of experiment [1] is CD8+ T cells comprising anti-fluorescein CAR. The experiment is described as follows: Stimulation of anti-fluorescein CAR T cells by plate-bound or free FITC conjugate; IL-2, IFN-gamma and CD69 by flow cytometry. In kind it is cell-based. Here is the method:
T cells comprising a nucleic acid encoding anti-fluorescein CAR were stimulated on FITC-conjugated-antibody-coated normal (Normal) or high affinity (High affinity) plates or antibody-FITC solution (Free) with increasing doses of FITC (0, 0.1, 1, 10, and 100 μg/mL) in the presence or absence of CD3/CD28 co-stimulation. Expression of IL-2, IFN-gamma and CD69 in CD8^+ T cells were assessed by flow cytometry.
(Flow cytometry measures light scatter and fluorescence of single cells or particles in a stream.)

In the next experiment the test system is CD4+ T cells. The experiment is described as follows: Memory markers on CD4+ T cells expressing cytokine receptor switches, stimulated on FITC-conjugated-BSA-coated plate, flow cytometry. Conditions: with CD3/CD28-costimulation, up to 2 weeks, FIG. 3A. It counts as cell-based, human. Here is the method:
(§1) T cells comprising nucleic acids encoding cytokine receptor switches were stimulated on FITC-conjugated-BSA-coated plate (FIG. 2) with increasing dose of FITC (0, 0.1, 1, 10, 100, and 1000 μg/mL) in the presence or absence of CD3/CD28 co-stimulation for up to 2 weeks. The effector memory (CD45RA^− CCR7^−), central memory (CD45RA^−, CCR7 ^+), and activation (CD69) markers on CD4^+ and CD8^+ T cells were assessed by flow cytometry.

The test system of another experiment is CD8+ T cells. The experiment is described as follows: Memory markers on CD8+ T cells expressing cytokine receptor switches, stimulated on FITC-conjugated-BSA-coated plate, flow cytometry. In kind it is cell-based, human. Conditions: with CD3/CD28-costimulation. As for the experimental part:
as §1

fluorescein isothiocyanate [FITC]: the “expression of IL-2 in CAR T cells” value in experiment [1] (FITC-dose-dependent, 0-100 μg/mL, FIG. 5A) is given as “increased”. Moreover, the “expression of IFN-gamma in CAR T cells” value in experiment [1] (FITC-dose-dependent, 0-100 μg/mL, FIG. 5B) is given as “increased”. Moreover, the “expression of CD69 in CAR T cells” value in experiment [1] (FITC-dose-dependent, 0-100 μg/mL, FIG. 5C) is “increased”.
Turning to “BSA-FITC: fluorescein isothiocyanate (FITC) conjugated to bovine serum albumin (BSA)”, the “stimulation of fluorescein-specific BAT-CAR-T cells” value in experiment [1] (bound on high-affinity plate, FIGS. 5A-5C) was “efficiently stimulated”.

B1: IL2RA-cytokine receptor switch: IL2RA signal peptide, anti-fluorescein scFv, CD8 hinge, IL2RA transmembrane and intracellular domains; SEQ ID NO: 59 (protein)
chain: MDSYLLMWGLLTFIMVPGCQADVVMTQTPLSLPVSLGDQASISCRSSQSLVHSNGNTYLRWYLQKPGQSPKVLIYKVSNRVSGVPDRFSGSGSGTDFTLKINRVEAEDLGVYFCSQSTHVPWTFGGGTKLEIKSSADDAKKDAAKKDDAKKDDAKKDGGVKLDETGGGLVQPGGAMKLSCVTSGFTFGHYWMNWVRQSPEKGLEWVAQFRNKPYNYETYYSDSVKGRFTISRDDSKSSVYLQMNNLRVEDTGIYYCTGASYGMEYLGQGTSVTVSTTTPAPRPPTPAPTIASQPLSLRPEACRPAAGGAVHTRGLDFACDVAVAGCVFLLISVLLLSGLTWQRRQRKSRRTI
For the molecule B1, in the experiment with CD4+ T cells, the “effector memory markers (CD45RA- CCR7-) on CD4+ T cells” value was “increased”. For the same molecule, the “central memory markers (CD45RA-, CCR7+) on CD8+ T cells” value with CD8+ T cells (FIG. 3B) is listed as “increased”. Moreover, the “effector memory markers (CD45RA- CCR7-) on CD8+ T cells” value in the experiment on CD8+ T cells (FITC-BSA-coated plate, up to 2 weeks, FIG. 3A) is reported as “increased”.

For the origin of these results see patent US20240408139A1, “ENGINEERED CYTOKINE RECEPTORS FOR TUNABLE ADOPTIVE CELL THERAPY” (Dana-Farber Cancer Institute, Inc., priority 2021, published 2024).
